The target of one data set is thrombin (Homo sapiens, UniProt P00734). Nature of the data set: Protease inhibition action (thrombin, synthetic coloring base S-2238). The format is biochemical. Particulars: thrombin final conc. 10 U/ml, preincubated at 37° C. for 5 minutes, S-2238 37° C. 15 minutes, 405 nm. The protocol:
Each of peptides Nos. 1, 31 to 34 was mixed at various volume with thrombin (final conc. 10 U/ml), and the resultant mixture was preincubated at 37° C. for 5 minutes. A synthetic coloring base (Test Team^R S-2238 available from Daiichi Kagaku Yakuhin) was added to the above preincubated mixture and was reacted at 37° C. for 15 minutes.
2% citric acid was added to the above mixture to stop the reaction. Hydrolysis was performed using residual thrombin, and free p-nitroaniline removed from the synthetic coloring base was subjected to colorimetric determination at a wavelength of 405 nm, thereby obtaining the inhibition capability with reference to 0.1M tris buffer. On the base of the inhibition capability thus obtained, a concentration of the peptides when each peptide inhibited the activity of thrombin with 50%, i.e. IC50 was calculated.

The subject of another data set is ddY mice. Nature of the data set: Acute toxicity test. The format is in vivo, mouse. Particulars: intravenous injection, 2,000 times (64 μmol/kg) the effective amount. The protocol: An acute toxicity test of peptides Nos. 1, 31 and 32 of the present invention was performed by using, ddY mice. […] No toxic expression was therefore observed.
The next data set deals with SD rats. Put plainly: Wound healing action (traction tension of skin wound). It counts as in vivo, rat. Particulars: skin wound stripe, eighth day; 32 nmol/kg i.v. once a day for 8 days; male SD rats; control 456.2 ± 21.6. An excerpt: The male SD rats (each group consisted of 10 rats) were anesthetized with ether and shaved in the back of the each rat, and the anesthetized portion was formed by a length of 30 mm along the median line by using a degreased, sterilized razor blade. The wound was immediately sutured at three equidistant positions, and the stitches were taken out after three days. The rats were subjected to hemorrhage to death in the eighth day, and the skins were peeled from the rats.
A skin stripe having a size of 1 cm×4 cm was formed from a wounded portion of each rat. Both ends of this stripe were set in a wound curing measurement tensile test instrument (TK-251 available from Unicom), and a tensile force (traction tension: g/cm) required to cut the wound portion was measured.
Each hexapeptide compound according to the present invention was dissolved in an acetic acid buffer solution added with 1% BSA and was intravenously injected to each rat for 8 days (once a day) from the date of wound formation. As a control, 1 ml/kg of the sodium acetat buffered solution added with 1% BSA instead of the hexapeptide solutions was injected according to same procedure as described above.

The test system of a further data set is Hybrid grown-up dogs. Put plainly: Anti-DIC action (platelet number after endotoxin). The format is in vivo, dog. The method, then: Hybrid grown-up dogs (each group consisted of six dogs) were used in this experiment. 30 mg/kg of pentobarbital were intravenously injected to anesthetize each dog. Intravenous injection of 32 nmol/kg of each of peptides Nos. 1, 31 and 32 was performed. After 30 minutes, 3 mg/kg of an endotoxin derived from Escherichia Coli were intravenously injected while the artificial respiration was performed with air.
Samples of blood were collecting from each dog immediately before the injection of the peptides and 120 minutes after the injection of the endotoxin.
As a control, a experiment was performed according to same procedure as described above except that the hexapeptides was not injected.
The number of platelets is the number per 1 mm^3 (1 μl) of the blood in Table 7.

Another data set deals with Wistar rats. Nature of the data set: Anti-edematous action (freezing-induced vascular cerebral edema). The format is in vivo, rat. The settings on record: left cerebral cortex, 32 nmol/kg i.v. 10 minutes before and 20 minutes after the freezing, male Wistar rats, control 81.4. The protocol: In this experiment, 8-week male Wistar rats were used, and peptides Nos. 1, 31 and 32 dissolved in a saline added with 1% BSA were used.
Iron column whose diameter was 5 mm cooled by dryice acetone was placed on the left epidural portion of each rat to cause a vascular cerebral edema. Freezing was performed to form an injured portion after an hour, and the brain of each rat was taken out. The brain was divided into right and left cerebral cortices, and weights of the left cerebral cortices were measured. The left cerebral cortices was dried at 105° C. for 24 hours, and weights of the dried left cerebral cortices were measured to obtain water contents (%). In this operations, the peptides Nos. 1, 31 and 32 were intravenously injected at the concentration shown in Table 6 to each rat 10 minutes before and 20 minutes after the freezing. As a control, 1 ml/kg of the saline added with 1% BSA instead of the peptides was injected into rat according to same procedures as described above.

In a further data set the test system is ICR mice. Nature of the data set: Anti-shock action (endotoxin-induced lethality). It counts as in vivo, mouse. The settings on record: 32 nmol/kg × 4 intravenously, endotoxin (LPS E. coli 0127B8) 10 mg/kg i.v. after 10 minutes; male ICR mice; control 80. The method, then: In this experiment, male ICR mice (each group consisted of 10 mice) each having a weight of 25 g to 35 g were used. Each of peptides Nos. 1, 31 and 32 was dissolved in a sodium acetate buffered solution (pH 6.0) added with 1% BSA or in a physiological saline.
An endotoxin to induce a shock was obtained by dissolving Lipopolysaccharide [E. coli; 0127B8 (Difco)] in a physiological saline.
Each of peptialdes Nos. 1, 31 and 32 was intravenously injected at a by dose of 5 ml/kg to each mouse, and the endotoxin with concentration of 10 mg/kg was intravenously injected at a dose of 5 ml/kg after 10 minutes. The lethal rates (%) of these mice within 24 hours were measured. As a control, 5 ml/kg of the sodium acetate buffered solution added with 1% BSA was injected instead of the hexapeptide of the present invention.

A further data set deals with Wister rats. Nature of the data set: Anti-allergic action (passive cutaneous anaphylaxis reaction). It counts as in vivo, rat. The settings on record: PCA reaction, 32 nmol g/kg i.v. 10 minutes before provocation, control 188.3 ± 9.71. The method, then:
In this experiment, 6-week, male Wister rats (each group consisted of 10 rats) were used, and the back of these rats were shaved.
An anti-egg albumin rat serum was diluted with a saline to forty-fold of its volume, thereby obtaining an anti-egg albumin rat serum solution. 1 ml of the anti-egg albumin rat serum solution was intradermally injected to both side parts against the median line in the shaved portion, thereby sensitizing passively the rats. After 48 hours, 1 ml of a 0.5% Evans blue solution containing 10 mg of a egg-albumin was intravenously injected to the each rat, thereby provocating a passive cutaneous anaphylaxis (PCA) reaction.
After 30 minutes, the rats were decapitated, thereby subjecting to hemorrhage to death. The skins were peeled from the rats, and a long diameter and a short diameter of a blue stained portions caused by the PCA reaction in each rat were measured, and area of the blue-stained portions were calculated on the base of the obtained data.
In these operations, the of peptides Nos. 1, 31 and 32 were dissolved in a sodium acetate buffered solution containing 1% BSA and was intravenously injected to each rat at 10 minutes before the provocation of the PCA reaction. As a control, the sodium acetate buffer solution containing 1% BSA instead of the peptide solutions was injected according to same procedure as described above.

The next data set has as its system Sprague-Dawley (SD) rats. Nature of the data set: Vascular permeability acceleration suppression action (hot-water leg edema). The format is in vivo, rat. Particulars: suppression of rate of increase in leg volume vs control; 1 ml/kg into femoral vein 10 minutes before dipping leg in 58° C. hot water for one minute; male SD rats. The protocol:
After 6-week male Sprague-Dawley (SD) rats (each group consisted of 10 rats) were fed for a week, they were used in this experiment.
The concentrations of samples of the hexapeptides (peptide Nos. 1 to 30) were dissolved by an acetic acid buffer solution added with a 1% bovine serum albumin (BSA).
An aliqrot of 1 ml/kg of each of the peptides Nos. 1 to 30 was injected into the femoral vein of the right leg of each rat anesthetized with 50 mg/kg of Nembutal Sodium (available from Dainippon Pharmaceutical Co., Ltd.). After 10 minutes, the nontreated left leg of the rat was dipped in 58° C. hot water for one minute to form an edema. Each rat was left at room temperature for 29 minutes, and the volumes of both legs of each rat were measured. As a control, the experiment following the same procedure as describe above was performed except that 1 ml/kg of a sodium acetate buffered solution containing 1% BSA instead of the hexapeptide of the present invention was injected in rats.
A rate (%) of increase in leg volume was calculated from the result of the above measurement by equation (1) below: [formula]
The rates were compared with that of the control.
- X: rate of increase in leg volume (%) of the present invention.
Xo: rate of increase in leg volume (%) of the control

*1 amine or outer side, *2 acyl side, *3 side chain or, on linkers, in order; H or OH if unused. Where a SMILES comes first, the peptide text is derived from it. [ ]: non-standard residue; d: D form. X2 = CCCCN([C@@H](CCCNC(=N)N)C(=O)[*:2])[*:1]; Leu(ol) = CC(C)C[C@H](N)CO

For orientation: IC50 means the concentration that gives 50% inhibition. Read a high IC50 as a need for much substance.

Turning to `CC[C@H](C)[C@H](NC(=O)[C@H](Cc1ccc(O)cc1)NC(=O)[C@@H]1CCCN1C(=O)[C@H](CCCNC(=N)N)NC(=O)CCCCNC(=N)N)C(=O)N[C@@H](CC(C)C)C(=O)O` [Peptide No. 1, Desamino-Arg--Arg--Pro--Tyr--Ile--Leu--OH], on thrombin, inhibition was half-maximal at 2500 nM (IC50). For the same molecule, in the data set on ddY mice, the “acute toxicity (death)” value is recorded as “No mice were dead”.
On to `CC[C@H](C)[C@H](NC(=O)[C@H](Cc1ccc(O)cc1)NC(=O)[C@@H]1CCCN1C(=O)[C@H](CCCNC(=N)N)NC(=O)[C@H](CCCNC(=N)N)NC(C)=O)C(=O)N[C@@H](CC(C)C)C(N)=O` [Peptide No. 32, N-acetyl--Arg--Arg--Pro--Tyr--Ile--Leu--NH2], for which the “Traction Tension” value in the data set on SD rats was 547.0 ± 32.3 g/cm. Moreover, in the data set on Hybrid grown-up dogs (32 nmol/kg i.v. 30 minutes before 3 mg/kg E. coli endotoxin i.v., control 43 × 10^4), the “Average Number of Platelets 120 Minutes after Venous Injection of Endotoxin” value is listed as 58 × 10^4 per 1 mm^3 (1 μl) of the blood. Further, the “Average Number of Platelets Immediately before Injection Endotoxin” value in the data set with Hybrid grown-up dogs (32 nmol/kg i.v., baseline sample, control 72 × 10^4) is on record as 71 × 10^4 per 1 mm^3 (1 μl) of the blood. Also, the “Water Content (%)” value with Wistar rats amounted to 80.6%. The “Lethal rate within 24 hours (%)” value with ICR mice was 20%. Besides, at thrombin, it took 2200 nM to reach half-maximal inhibition (IC50). Besides, the “Area of blue-stained portion (mm^2)” value with Wister rats is given as 112.8 ± 4.83 mm^2. For the same molecule, the “acute toxicity (death)” value in the data set with ddY mice is recorded as “No mice were dead”.
`CCCCN[C@@H](CCCNC(=N)N)C(=O)N[C@@H](CCCNC(=N)N)C(=O)N1CCC[C@H]1C(=O)N[C@@H](Cc1ccc(O)cc1)C(=O)N[C@H](C(=O)N[C@H](CO)CC(C)C)[C@@H](C)CC` [Peptide No. 33, N-buthyl--Arg--Arg--Pro--Tyr--Ile--Leucinol] (H-[X2]RPYI[Leu(ol)]) had an IC50 against thrombin of 2300 nM.
For `CC[C@H](C)[C@H](NC(=O)[C@H](Cc1ccc(O)cc1)NC(=O)[C@@H]1CCCN1C(=O)[C@H](CCCNC(=N)N)NC(=O)[C@H](CCCNC(=N)N)NC(C)=O)C(=O)N[C@H](CO)CC(C)C` [Peptide No. 31, N-acetyl--Arg--Arg--Pro--Tyr--Ile-Leucinol], it took 2300 nM to reach half-maximal inhibition against thrombin (IC50). For the same molecule, in the data set on ddY mice, the “acute toxicity (death)” value is “No mice were dead”.
For the molecule “Desamino-Arg-D-Lys--Pro--Trp--Ile-Leucinol [Peptide No. 23]”, the “Suppression Rate (%)” value in the data set on Sprague-Dawley (SD) rats is listed as 20.8%.

Values taken from patent US5393740A, “Neurotensin Hexapeptides” (Tsumura & Co., priority 1991, dated 1995).
